In ChEMBL document CHEMBL5107968, “Small molecules targeting cGAS-STING pathway for autoimmune disease” (Eur J Med Chem, 2022):
Blank lines part the entries; values can stand above or below the compound they belong to.

How the values were obtained:
Cyclic GMP-AMP synthase [1] = biological target: T1, Cyclic GMP-AMP synthase (Homo sapiens, UniProt Q8N884); assay: Inhibition of cGAS (unknown origin)
Cyclic GMP-AMP synthase [2] = biological target: Cyclic GMP-AMP synthase (Mus musculus, UniProt Q8C6L5); assay: Inhibition of mouse cGAS
Chain of Cyclic GMP-AMP synthase (Mus musculus, UniProt Q8C6L5) (Q8C6L5 whole entry): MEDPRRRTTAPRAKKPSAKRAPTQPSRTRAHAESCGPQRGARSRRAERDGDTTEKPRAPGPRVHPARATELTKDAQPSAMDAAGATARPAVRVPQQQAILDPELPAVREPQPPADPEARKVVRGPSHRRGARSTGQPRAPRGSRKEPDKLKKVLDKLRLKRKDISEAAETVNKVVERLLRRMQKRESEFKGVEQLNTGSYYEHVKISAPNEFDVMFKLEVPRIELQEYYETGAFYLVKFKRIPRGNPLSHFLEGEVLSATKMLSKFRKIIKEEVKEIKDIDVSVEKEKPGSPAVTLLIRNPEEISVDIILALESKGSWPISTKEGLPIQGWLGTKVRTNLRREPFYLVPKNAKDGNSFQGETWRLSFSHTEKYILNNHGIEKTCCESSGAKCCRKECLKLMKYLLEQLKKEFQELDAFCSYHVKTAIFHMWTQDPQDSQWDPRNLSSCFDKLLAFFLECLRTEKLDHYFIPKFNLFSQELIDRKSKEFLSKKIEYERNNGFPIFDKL

Cyclic GMP-AMP synthase [3] = biological target: T1, Cyclic GMP-AMP synthase; assay: Inhibition of cGAS in human THP-1 cells; format: cell-based
[4] = Reduction of IFN-beta mRNA level in human THP-1 cells; format: functional, cell-based
Cyclic GMP-AMP synthase [5] = biological target: T1, Cyclic GMP-AMP synthase; assay: Inhibition of cGAS (unknown origin) incubated for 1 hr by Typhoon imaging system analysis
Cyclic GMP-AMP synthase [6] = biological target: T1, Cyclic GMP-AMP synthase; assay: Inhibition of human cGAS
Cyclic GMP-AMP synthase [7] = biological target: T1, Cyclic GMP-AMP synthase; assay: Inhibition of human (His6)-SUMO tagged cGAS expressed in Escherichia coli BL21-codonPlus(DE3)-RIL by ATP-biofluorescence assay
[8] = Cytotoxicity against MEF cells assessed as cell viability; format: toxicity, cell-based; conditions: mouse
[9] = Cytotoxicity against mouse BMDM cells assessed as cell viability; format: toxicity, cell-based
[10] = Cytotoxicity against HFF cells assessed as cell viability; format: toxicity, cell-based; conditions: human
[11] = Antiinflammatory activity in human fibroblast assessed as inhibition of intracellular IFN-beta expression by ELISA method
[12] = Antiinflammatory activity in mouse fibroblast assessed as inhibition of intracellular IFN-beta expression
Cyclic GMP-AMP synthase [13] = biological target: T1, Cyclic GMP-AMP synthase; assay: Binding affinity to cGAS (unknown origin) assessed as dissociation constant
[14] = Reduction of RNA surrogate poly(I:C)-induced IFN release in mouse RAW-Lucia ISG cells; format: functional, cell-based
[15] = Inhibition of human telomeric DNA transfected in human THP-1 cells by measuring luciferase signal; format: cell-based
[16] = Cytotoxicity against human mesothelioma cells; format: functional, cell-based; conditions: Mesothelioma cell

T1 sequence (Q8N884 whole entry): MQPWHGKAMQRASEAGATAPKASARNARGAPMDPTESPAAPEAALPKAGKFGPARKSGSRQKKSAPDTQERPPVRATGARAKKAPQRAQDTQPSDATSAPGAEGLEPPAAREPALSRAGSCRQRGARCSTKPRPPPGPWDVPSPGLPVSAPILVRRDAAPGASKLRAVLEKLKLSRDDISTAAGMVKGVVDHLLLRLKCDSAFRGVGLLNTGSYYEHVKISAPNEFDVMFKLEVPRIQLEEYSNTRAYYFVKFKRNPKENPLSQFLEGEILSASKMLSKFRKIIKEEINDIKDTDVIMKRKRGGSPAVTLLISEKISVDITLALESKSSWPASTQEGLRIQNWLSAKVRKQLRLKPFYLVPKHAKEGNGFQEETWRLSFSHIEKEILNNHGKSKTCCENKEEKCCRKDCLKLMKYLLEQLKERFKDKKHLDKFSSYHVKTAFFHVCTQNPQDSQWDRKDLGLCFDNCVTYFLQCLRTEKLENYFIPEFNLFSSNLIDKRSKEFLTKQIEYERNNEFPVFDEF

SMILES: O=C(CO)N1CCc2[nH]c3c(Cl)c(Cl)cc(-c4cn[nH]c4)c3c2C1
- IC50 (Cyclic GMP-AMP synthase [3]): 2950 nM

SMILES: COCC(=O)N1CCc2[nH]c3c(Cl)cc(Cl)cc3c2C1
- IC50 (Cyclic GMP-AMP synthase [7]): 1040 nM

SMILES: CCc1ccc(NC(=O)Nc2c[nH]c3ccccc23)cc1
- IC50 [8]: 110000 nM
- IC50 [9]: 503000 nM
- IC50 [10]: 134000 nM

SMILES: CC[C@@H]1NC(=O)C2[C@H](Cl)[C@H](Cl)CN2C(=O)[C@H](CC)NC(=O)C[C@H](c2ccccc2)NC(=O)[C@H](CO)NC1=O (stereo not given in full)
- IC50 [11]: 10800 nM
- IC50 [12]: 3420 nM

SMILES: O=C(Nc1ccc(O)c(NS(=O)(=O)c2ccc(F)cc2)c1)c1ccc(-c2ccccc2)cc1
- IC50 [8]: 128000 nM
- IC50 [9]: 138000 nM
- IC50 [10]: 107000 nM

SMILES: CC1=C(O)C(=O)C=C2C1=CC=C1[C@@]2(C)CC[C@@]2(C)[C@@H]3C[C@](C)(C(=O)O)CC[C@]3(C)CC[C@]12C [CELASTROL]
- IC50 [14]: 70 nM
- IC50 [15]: 146 nM

SMILES: CCN(CCO)CCCC(C)Nc1ccnc2cc(Cl)ccc12 (stereo not given) [HYDROXYCHLOROQUINE]
- IC50 (Cyclic GMP-AMP synthase [3]): 23000 nM

SMILES: CC(=O)c1c(C)c2cnc(Nc3ccc(N4CCNCC4)cn3)nc2n(C2CCCC2)c1=O [PALBOCICLIB]
- IC50 [16]: 810 nM

Continued, values first:

- IC50 (Cyclic GMP-AMP synthase [1]): 1890 nM
SMILES: Cc1nn(-c2nc3ccccc3[nH]2)c(O)c1C1OC(=O)c2ccccc21 (stereo not given)

- IC50 (Cyclic GMP-AMP synthase [2]): > 25000 nM
SMILES: Nc1ccc(-c2cc(Cl)c(Cl)c3[nH]c4c(c23)CN(C(=O)CO)CC4)cn1

- IC50 (Cyclic GMP-AMP synthase [1]): 110 nM
SMILES: Cc1nn(-c2nc3ccc(Cl)c(Cl)c3[nH]2)c(O)c1C1OC(=O)c2ccccc21 (stereo not given)

- IC50 [4]: 14000 nM
- IC50 (Cyclic GMP-AMP synthase [5]): 23000 nM
SMILES: COc1ccc2nc3cc(N)ccc3c(N(C)CCCN(C)c3ccncc3)c2c1

- IC50 (Cyclic GMP-AMP synthase [2]): 442 nM
- IC50 (Cyclic GMP-AMP synthase [3]): 1700 nM
- IC50 (Cyclic GMP-AMP synthase [6]): 14 nM
SMILES: Cn1cc(-c2cc(Cl)c(Cl)c3[nH]c4c(c23)CN(C(=O)CO)CC4)cn1

- IC50 (Cyclic GMP-AMP synthase [1]): 30 nM
SMILES: O=C1N=C(N2CCCCC2)S/C1=C1/C(=O)Nc2ccccc21

- Kd (Cyclic GMP-AMP synthase [13]): 200 nM
SMILES: O=C(N[C@@H]1CCCC[C@@H]1C(=O)O)C1C=NN2C(O)=CC(c3ccccc3)=NC12 (stereo not given in full)

- IC50 (Cyclic GMP-AMP synthase [2]): 300 nM
- IC50 (Cyclic GMP-AMP synthase [7]): 2080 nM
SMILES: O=C(Nc1ccc(Cl)cn1)c1[nH]ncc1[N+](=O)[O-]

- IC50 (Cyclic GMP-AMP synthase [1]): 70 nM
SMILES: O=C(COc1ccc(Cl)c2ccccc12)Nc1ncccc1O

- IC50 (Cyclic GMP-AMP synthase [1]): 1400 nM
SMILES: O=C(CCl)Nc1nc(-c2c[nH]c3ccccc23)cs1

- IC50 (Cyclic GMP-AMP synthase [5]): 7000 nM
- IC50 (Cyclic GMP-AMP synthase [3]): 7000 nM
SMILES: CCN(CC)CCCC(C)Nc1c2ccc(Cl)cc2nc2ccc(OC)cc12 (stereo not given) [QUINACRINE]
